What all share (type): physicochemical
The nature of data set [1]: leaching of cypress blocks, bilirubin oxidase (Example 6). Conditions: for Elution Rate (%) LSA: pH 8.1-8.8; for Elution Rate (%) Chemical Agent: pH 8.1-8.8, species as bracketed (Copper, Zinc, Nickel, Boron, H = hinokitiol), else the agent named. An excerpt: Taking the amounts of the lignosulfonic acid (LSA) and chemical agent as injected upon the impregnation treatment as 100%, respectively, the amounts of the substances which were eluted were compared.

Data set [2] in a line: leaching of Japan cedar blocks treated with LSA and chemical agents (Example 4). To be noted: 5% LSA; for Elution Rate (%) Chemical Agent: species measured as bracketed (Copper, Zinc, Nickel, Boron, H = hinokitiol), else the agent named. On the procedure: For chemical agents having low solubilities, they were added to aqueous lignosulfonic acid solution after it was warmed to 60 to 90° C., and it was cooled at 25° C. after the chemical agents were suspended, dispersed, dissolved by Vortex-Mixer, […]
The amount of lignosulfonic acid which leached off was determined by measurement of the absorbance at 280 nm, and the amount of the chemical agent which leached off was determined by complex formation and spectrophotometry using PAN (1-(2-pyridylazo)-2-naphthol, Aldrich Chemical Company) or quinalizarin (Wako Pure Chemicals), separation, identification and determination, using HPLC or gas chromatography, or atomic absorption analysis were performed, followed by calculation of the amount of the chemical agents which was eluted. When the chemical agents had absorption at 280 nm, the concentration of lignosulfonic acid was calculated by measuring the absorbance at 280 nm of the chemical agents of which the concentration was measured by the above-described method and subtracting an influence by the chemical agent from the absorbance at 280 nm of the liquid which was eluted. The amounts of the chemical agents and lignosulfonic acid which were eluted were calculated and compared taking the amounts of them injected upon the impregnation treatment as 100%.

The nature of data set [3]: leaching of cypress blocks, peroxidase + alcohol oxidase (Example 7). Conditions: 5 U/ml peroxidase + 5 U/ml alcohol oxidase + 1% methanol. An excerpt:
The peroxidase used was obtained from horse radish (Type II, Sigma) and the alcohol oxidase used was obtained from Candida boidini (Boehringer Mannheim Biochemica).

A short description of data set [4]: leaching of Japan cedar blocks, treating mixture with tung oil (Example 8). To be noted: Example 1 enzyme, 5% LSA, 2,000 ppm tung oil; for Elution Rate (%) LSA: pH 8.1-8.5; for Elution Rate (%) Chemical Agent: pH 8.1-8.5, species as bracketed (Copper, Zinc, Nickel, H = hinokitiol), else the agent named. On the procedure: The amounts of the chemical agents and lignosulfonic acid which were eluted were calculated and compared taking the amounts of them injected upon the impregnation treatment as 100%.

Data set [5] is described as follows: leaching of Japan cedar blocks, powdery treatment agent stored 2 weeks (Example 21). Conditions: 5 g in 100 ml; for Elution Rate (%) LSA: powdery agent (10 mg enzyme + 10 g LSA + agent) stored 2 weeks, Japan cedar; for Elution Rate (%) Chemical Agent: powdery agent stored 2 weeks, species as bracketed (Copper, Zinc, Nickel, Boron, H = hinokitiol), else the agent named. On the procedure:
10 mg of the freeze-dried product described in Example 1, 10 g of commercially available lignosulfonic acid (LSA) powder, and various chemical agents were mixed well in a mortar to obtain a treatment agent for treating a porous article. If desired, a small amount of sodium carbonate powder was added to the resulting powder and mixed well, so that when a 5% aqueous solution was prepared from the above-described powder the solution could have a pH of 8.0 to 9.0. Then, after the powdery treatment agent was left to stand at room temperature for 2 weeks, 5 g of the powder was dissolved in 100 ml of deionized water to prepare a solution for treating a porous article. Using this solution, Japan cedar wood blocks were subjected to reduced pressure impregnation, drying/macromolecularization reaction, and leaching in the same manner as in Examples 3 and 4. Taking the amounts of lignosulfonic acid and chemical agents injected upon the impregnation treatment as 100%, respectively, the amounts of them which was eluted were compared. The results are shown in Table 12, from which it can be seen that the powdery treatment agent enables effective treatment of porous articles.

Data set [6] in a line: leaching of Japan cedar blocks, liquid treatment agent stored 2 weeks (Example 21). Conditions: diluted 10-fold; for Elution Rate (%) LSA: liquid agent (6 g powder in 12 ml) stored airtight 2 weeks, Japan cedar; for Elution Rate (%) Chemical Agent: liquid agent stored airtight 2 weeks, species as bracketed (Copper, Zinc, Nickel, Boron, H = hinokitiol), else the agent named. On the procedure:
Further, 6 g of the powdery treatment agent obtained in the same manner as described above was dissolved in 12 ml of deionized water to obtain a liquid treatment agent for a porous article. The liquid treatment agent was transferred into a 20 ml screw capped test tube. After the test tube stand airtightly at room temperature for 2 weeks, the liquid treatment agent was diluted 10-fold with deionized water to prepare a solution for treating a porous article. Japan cedar wood blocks were subjected to reduced pressure impregnation treatment with the solution thus obtained, drying/macromolecularization reaction, and elution treatment in the same manner as in Examples 3 and 4. The amounts of the lignosulfonic acid which were eluted were calculated and compared taking the amounts of it injected upon the impregnation treatment as 100%.

Setting [7] is: in the absence of enzyme (comparison), pH 8.1-8.8.
The mark [8] stands for this setting: in the presence of enzyme, Japan cedar, pH of treating agent 8.1-8.8.
[9] abbreviates: in the presence of enzyme, pH 8.1-8.8.

Turning to `OB(O)O` [1% Boric acid, Boric acid], the “Elution Rate (%) LSA” value amounted to 3.7% in data set [1], 22.1% in data set [2] (setting [7]), 0.7% in data set [2] (setting [8]) and 5.6% in data set [3] (pH 8.1-8.8). Further, the “Elution Rate (%) Chemical Agent” value in data set [1] amounted to 26.2%; in data set [2] (setting [7]), 32.3%; in data set [2] (setting [9]) it was 25.1%; in data set [3] (pH 8.1-8.8, species as bracketed (Copper, Zinc, Boron, H = hinokitiol), else the agent named), 27.5%.
Take `Cc1cc2cccc(C)c2cc1C` [10 ppm 2,3,5-Trimethylnaphthalene, 2,3,5-Trimethylnaphthalene]: the “Elution Rate (%) LSA” value in data set [1] was found to be 2.4%; in data set [2] (setting [7]), 23.3%; in data set [2] (setting [8]), 0.8%. The “Elution Rate (%) Chemical Agent” value amounted to 0.3% in data set [1], 5.6% in data set [2] (setting [7]) and 0.1% in data set [2] (setting [9]).
Regarding `C=CCN=C=S` [100 ppm Allyl isothiocyanate, Allyl isothiocyanate], the “Elution Rate (%) LSA” value is 8.5% in data set [1], 2.1% in data set [4], 26.3% in data set [2] (setting [7]) and 3.5% in data set [2] (setting [8]). Besides, the “Elution Rate (%) Chemical Agent” value in data set [1] is given as 7.8%; in data set [4] it was 1.3%; in data set [2] (setting [7]), 7.5%; in data set [2] (setting [9]) it was 2.2%.
Take `O=CC=Cc1ccccc1` [100 ppm Cinnamaldehyde, Cinnamaldehyde]: the “Elution Rate (%) LSA” value in data set [1] amounted to 5.4%; in data set [4], 1.9%; in data set [2] (setting [7]), 22.1%; in data set [2] (setting [8]) it was 1.5%. Further, the “Elution Rate (%) Chemical Agent” value in data set [1] is given as 2.1%; in data set [4], 0.2%; in data set [2] (setting [7]), 8.5%; in data set [2] (setting [9]), 0.7%.
On to `CC(C)=CCCC(C)=CC=O` [100 ppm citral, citral], for which the “Elution Rate (%) LSA” value came to 7.9% in data set [1], 23.4% in data set [2] (setting [7]) and 2.5% in data set [2] (setting [8]). For the same compound, the “Elution Rate (%) Chemical Agent” value in data set [1] is reported as 6.0%; in data set [2] (setting [7]) it was 7.1%; in data set [2] (setting [9]) it was 1.8%.
Turning to `CC(C)=CCCC(C)CCO` (stereo not drawn) [100 ppm β-citronellol, β-citronellol], the “Elution Rate (%) LSA” value in data set [1] was 2.9%; in data set [4], 1.7%; in data set [2] (setting [7]), 25.4%; in data set [2] (setting [8]), 0.7%. The “Elution Rate (%) Chemical Agent” value in data set [1] is 0.8%; in data set [4] it was 0.2%; in data set [2] (setting [7]), 6.8%; in data set [2] (setting [9]), 0.4%.
For the compound `Nc1ccccc1N` [200 ppm o-Phenylenediamine, o-Phenylenediamine], the “Elution Rate (%) LSA” value in data set [1] was 2.5%; in data set [2] (setting [7]), 16.5%; in data set [2] (setting [8]), 1.0%. Besides, the “Elution Rate (%) Chemical Agent” value in data set [1] was found to be 0.6%; in data set [2] (setting [7]), 5.3%; in data set [2] (setting [9]), 0.2%.
Turning to `CC1=CC[C@@H]2C[C@H]1C2(C)C` [500 ppm (1R)-(+)-α-pinene, (1R)-(+)-α-pinene], the “Elution Rate (%) LSA” value in data set [1] came to 1.0%; in data set [4] it was 0.7%; in data set [2] (setting [7]), 22.8%; in data set [2] (setting [8]), 0.6%. In addition, the “Elution Rate (%) Chemical Agent” value in data set [1] was 1.2%; in data set [4], 0.2%; in data set [2] (setting [7]), 7.3%; in data set [2] (setting [9]), 0.3%.
For the compound `CC1CCC(C(C)C)C(O)C1` [500 ppm (1R,2S,5R)-(−)-menthol, (1R,2S,5R)-(−)-menthol], the “Elution Rate (%) LSA” value in data set [1] came to 2.8%; in data set [4] it was 0.6%; in data set [2] (setting [7]), 27.4%; in data set [2] (setting [8]), 0.5%. Further, the “Elution Rate (%) Chemical Agent” value in data set [1] is listed as 1.3%; in data set [4] it was 0.4%; in data set [2] (setting [7]) it was 7.5%; in data set [2] (setting [9]), 0.2%.
On to `CC12CCC(CC1)C(C)(C)O2` [500 ppm cineole, cineole], for which the “Elution Rate (%) LSA” value turned out to be 0.8% in data set [1], 0.5% in data set [4], 25.7% in data set [2] (setting [7]) and 0.5% in data set [2] (setting [8]). Moreover, the “Elution Rate (%) Chemical Agent” value in data set [1] is recorded as 0.6%; in data set [4] it was 0.2%; in data set [2] (setting [7]), 6.2%; in data set [2] (setting [9]), 0.2%.
As for `CC1=CCC(C(C)(C)O)CC1` (stereo not drawn) [500 ppm α-terpineol, α-terpineol], the “Elution Rate (%) LSA” value is 1.1% in data set [1], 0.6% in data set [4], 24.5% in data set [2] (setting [7]) and 0.7% in data set [2] (setting [8]). The “Elution Rate (%) Chemical Agent” value in data set [1] amounted to 1.4%; in data set [4] it was 0.3%; in data set [2] (setting [7]), 9.1%; in data set [2] (setting [9]) it was 0.6%.
For the compound `OB(O)O` [Boric acid (2 g), Boric acid], in data set [5], the “Elution Rate (%) LSA” value is 0.6% and the “Elution Rate (%) Chemical Agent” value turned out to be 18.1%. The “Elution Rate (%) LSA” value in data set [6] was found to be 0.6%.
Regarding `CC(C)c1cccc(=O)c(O)c1` [Hinokitiol (0.2 g), Hinokitiol], in data set [5], the “Elution Rate (%) LSA” value was determined as 0.6% and the “Elution Rate (%) Chemical Agent” value was 3.0%. Also, in data set [6], the “Elution Rate (%) LSA” value worked out at 0.4% and the “Elution Rate (%) Chemical Agent” value turned out to be 2.5%.
As for `O=C(OC[C@H]1O[C@@H](OC(=O)c2cc(O)c(O)c(OC(=O)c3cc(O)c(O)c(O)c3)c2)[C@H](OC(=O)c2cc(O)c(O)c(OC(=O)c3cc(O)c(O)c(O)c3)c2)[C@@H](OC(=O)c2cc(O)c(O)c(OC(=O)c3cc(O)c(O)c(O)c3)c2)[C@@H]1OC(=O)c1cc(O)c(O)c(OC(=O)c2cc(O)c(O)c(O)c2)c1)c1cc(O)c(O)c(OC(=O)c2cc(O)c(O)c(O)c2)c1` [Tannic acid (0.1 g), Tannic acid], in data set [5], the “Elution Rate (%) LSA” value is recorded as 3.6% and the “Elution Rate (%) Chemical Agent” value is listed as 4.2%. In addition, in data set [6], the “Elution Rate (%) LSA” value is recorded as 3.7% and the “Elution Rate (%) Chemical Agent” value amounted to 4.6%.
The like results for `Nc1ccccc1N` [o-Phenylenediamine (0.04 g), o-Phenylenediamine] were, in that order, 1.5%, 0.4%, 2.1% and 0.8%.
In the same order, the values of “(+)-Catechin.H2O [(+)-Catechin.H2O (0.2 g)]” are 2.9%, 3.2%, 2.0% and 3.4%.

(Values after patent publication US20030017565A1, “COMPOSITION AND METHOD FOR TREATING A POROUS ARTICLE AND USE THEREOF” (priority 1996, published 2003).)
